Our source for the IC90 values is patent US20230012368A1 (Hoffmann-La Roche Inc., priority 2018, published 2023).

Structures can show the parent of a compound that is named as a salt.

The first experiment deals with Acinetobacter baumannii ATCC 17978. Briefly: Antimicrobial susceptibility testing: 90% growth inhibitory concentration (IC90) determination. The class given is cell-based. The note with it: 90% growth inhibitory concentration; Acinetobacter baumannii ATCC17978; Iso-Sensitest broth, OD 600 nm over 16h; read-out: ATCC17978 IC90. Put shortly: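 Growth of the Acinetobacter baumannii strain was followed by optical density at 600 nm every 20 minutes for 16h at 35±2° C. Inoculum was ~5×10^(5) CFU/ml in Iso-Sensitest medium, with twofold compound dilutions (e.g. 50 to 0.097 μM final). The 90% inhibitory concentration was derived in log-phase growth.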
The IC90 is the concentration needed for an effect of 90%. Turning to `Cc1cc(Nc2nccn3c(-c4ccc(Cl)cc4)cnc23)ccc1C(=O)NCCCN` [Example 236, N-(3-aminopropyl)-4-[[3-(4-chlorophenyl)imidazo[1,2-a]pyrazin-8-yl]amino]-2-methylbenzamide; hydrochloride], the IC90 was 1400 nM.

In the case of `COc1ccc(-c2cnc3c(Nc4ccc(C(=O)NCCCCCCCN)c(C)c4)nccn23)c(F)c1F` [Example 516, N-(7-aminoheptyl)-4-((3-(2,3-difluoro-4-methoxyphenyl)imidazo[1,2-a]pyrazin-8-yl)amino)-2-methylbenzamide hydrochloride], the IC90 was 34 nM.

The experiment is the same for the next values; noted with them: Acinetobacter baumannii, ATCC17978, 16 h, 90% growth inhibitory concentration; Acinetobacter baumannii ATCC17978; Iso-Sensitest broth, OD 600 nm over 16h; read-out: ATCC17978 IC90.
Turning to `CC[C@@]1(O)CN[C@H](C(=O)NCCNC(=O)c2ccc(Nc3nccn4c(-c5ccc(OC)c(F)c5F)cnc34)cc2C)C1` [Example 371, (2S,4S)-N-[2-[[4-[[3-(2,3-difluoro-4-methoxyphenyl)imidazo[1,2-a]pyrazin-8-yl]amino]-2-methylbenzoyl]amino]ethyl]-4-ethyl-4-hydroxypyrrolidine-2-carboxamide], the IC90 came to 150 nM.

With `CCc1cc(Nc2nccn3c(-c4ccc(OC)c(F)c4F)cnc23)ccc1C(=O)NCC(C)CNC(=O)[C@@H](N)CCNC(=N)N` (mixture of isomers) [Example 401, rac-N-(3-((R)-2-amino-4-guanidinobutanamido)-2-methylpropyl)-4-((3-(2,3-difluoro-4-methoxyphenyl)imidazo[1,2-a]pyrazin-8-yl)amino)-2-ethylbenzamide diformate], the IC90 was 220 nM.

As for `COc1ccc(-c2cnc3c(Nc4ccc(C(=O)NCCN5CCNCC5)c(C)c4)nccn23)c(F)c1F` [Example 377, 4-[[3-(2,3-difluoro-4-methoxyphenyl)imidazo[1,2-a]pyrazin-8-yl]amino]-2-methyl-N-(2-piperazin-1-ylethyl)benzamide], the IC90 stood at 180 nM.

In the case of `CCc1cc(Nc2nccn3c(-c4ccc(OC)c(F)c4F)cnc23)ccc1C(=O)N[C@@H](CC)CN` [Example 489, N-[(1S)-1-(aminomethyl)propyl]-4-[[3-(2,3-difluoro-4-methoxy-phenyl)imidazo[1,2-a]pyrazin-8-yl]amino]-2-ethyl-benzamide; formic acid], the IC90 is 500 nM.

Turning to `CCc1cc(Nc2nccn3c(-c4ccc(OC)cc4F)cnc23)ccc1C(=O)NCCCN` [Example 280, N-(3-aminopropyl)-2-ethyl-4-[[3-(2-fluoro-4-methoxyphenyl)imidazo[1,2-a]pyrazin-8-yl]amino]benzamide;hydrochlo-ride], the IC90 amounted to 880 nM.

Regarding `C=Cc1cc(Nc2nccn3c(-c4ccc(OC(F)F)cc4)cnc23)ccc1C(=O)NCCN1CCNCC1` [Example 238, 4-[[3-[4-(difluoromethoxy)phenyl]im-idazo[1,2-a]pyrazin-8-yl]amino]-2-ethenyl-N-(2-piperazin-1-ylethyl)benzamide; hydrochlo-ride], the IC90 amounted to 1800 nM.

For the compound `CCc1cc(Nc2nccn3c(-c4ccc(OC(F)F)c(F)c4F)cnc23)ccc1C(=O)NCCC(=O)N1CCNCC1` [Example 542, 4-((3-(4-(difluoromethoxy)-2,3-difluorophenyl)imidazo[1,2-a]pyrazin-8-yl)amino)-2-ethyl-N-(3-oxo-3-(piperazin-1-yl)propyl)benzamide 2,2,2-trifluoroacetate], the IC90 came to 54 nM.

Turning to `COc1ccc(-c2cnc3c(Nc4cc(C)c(C(=O)NCCN)c(F)c4)nccn23)c(F)c1F` [Example 467, N-(2-aminoethyl)-4-((3-(2,3-difluoro-4-methoxyphenyl)imidazo[1,2-a]pyrazin-8-yl)amino)-2-fluoro-6-methylbenzamide], the IC90 worked out at 630 nM.

Turning to `COc1ccc(-c2cnc3c(Nc4cc(F)c(C(=O)NCCCN)c(Cl)c4)nccn23)c(F)c1F` [Example 436, N-(3-aminopropyl)-2-chloro-4-((3-(2,3-difluoro-4-methoxyphenyl)imidazo[1,2-a]pyrazin-8-yl)amino)-6-fluorobenzamide], the IC90 stood at 650 nM.

For `CCc1cc(Nc2nccn3c(-c4ccc(OCC#N)c(F)c4F)cnc23)ccc1C(=O)NCCNC(=O)[C@@H](N)CO` [Example 135, N-[2-[[(2S)-2-amino-3-hydroxy-propanoyl]amino]ethyl]-4-[[3-[4-(cyanomethoxy)-2,3-difluoro-phenyl]imidazo[1,2-a]pyrazin-8-yl]amino]-2-ethyl-benzamide formate], the IC90 was 90 nM.

For `CCc1cc(Nc2nccn3c(-c4ccc(OC)c(F)c4F)cnc23)ccc1C(=O)NCCNC(=O)[C@@H](N)CCCNC(=N)N` [Example 121, N-[2-[[(2S)-2-amino-5-guanidino-pentanoyl]amino]ethyl]-4-[[3-(2,3-difluoro-4-methoxy-phenyl)imidazo[1,2-a]pyrazin-8-yl]amino]-2-ethyl-benzamide trifluoroacetate], the IC90 came out at 280 nM.

With `CCc1cc(Nc2nccn3c(-c4ccc(OC)c(F)c4F)cnc23)ccc1C(=O)NC(C)CNC(C)=N` (centres unmarked) [Example 169, 4-[[3-(2,3-difluoro-4-methoxyphenyl)imidazo[1,2-a]pyrazin-8-yl]amino]-N-[1-(ethanimidoylamino)propan-2-yl]-2-ethylbenzamide], the IC90 was 70 nM.

`CCc1cc(Nc2nccn3c(-c4ccc(OC)c(F)c4F)cnc23)ccc1C(=O)NC[C@@H]1CCNC1` [Example 529, (R)-4-((3-(2,3-difluoro-4-methoxyphenyl)imidazo[1,2-a]pyrazin-8-yl)amino)-2-ethyl-N-(pyrrolidin-3-ylmethyl)benzamide hydrochloride]: the IC90 is 110 nM.

For `COc1ccc(-c2cnc3c(Nc4ccc5c(c4)CCN(CCN(C)C)C5=O)nccn23)cc1F` [Example 116, 2-[2-(dimethylamino)ethyl]-6-[[3-(3-fluoro-4-methoxy-phenyl)imidazo[1,2-a]pyrazin-8-yl]amino]-3,4-dihydroisoquinolin-1-one], the IC90 was determined as 940 nM.

Take `CCc1cc(Nc2nccn3c(-c4ccc(OC)c(F)c4F)cnc23)ccc1C(=O)NCCN1CCC(C(N)=O)C1` (centres unmarked) [Example 561, 1-[2-[[4-[[3-(2,3-difluoro-4-methoxy-phenyl)imidazo[1,2-a]pyrazin-8-yl]amino]-2-ethyl-benzoyl]amino]ethyl]pyrroli-dine-3-carboxamide]: the concentration for an effect of 90% (IC90) was determined as 190 nM.

With `CCc1cc(Nc2nccn3c(-c4ccc(OC)c(F)c4F)cnc23)ccc1C(=O)NCCCCCC(=O)N1CCN[C@H](CO)C1` [Example 162, 4-[[3-(2,3-difluoro-4-methoxy-phenyl)imidazo[1,2-a]pyrazin-8-yl]amino]-2-ethyl-N-[6-[(3S)-3-(hydroxymethyl)piperazin-1-yl]-6-oxo-hexyl]benzamide], the IC90 stood at 80 nM.

`CN(CCCn1c(=O)c(=O)[nH]n(C)c1=S)C(=O)c1ccc(Nc2nccn3c(-c4ccc(OCC#N)c(F)c4F)cnc23)cc1Cl` [Example 396, 2-chloro-4-((3-(4-(cyanomethoxy)-2,3-difluorophenyl)imidazo[1,2-a]pyrazin-8-yl)amino)-N-methyl-N-(3-(2-methyl-5,6-dioxo-3-thioxo-1,2,4-triazinan-4-yl)propyl)benzamide]: the IC90 amounted to 570 nM.

Turning to `COc1ccc(-c2cnc3c(Nc4ccc(C(=O)N(C)CCO)cc4)nccn23)cc1` [Example 235, N-(2-hydroxyethyl)-4-[[3-(4-methoxyphenyl)imidazo[1,2-a]pyrazin-8-yl]amino]-N-methylbenzamide], the IC90 turned out to be 1000 nM.
